Measured values taken from US6936609B2, “Imidazotriazines for use as phosphodiesterase inhibitors” (Bayer HealthCare AG, priority 2001, dated 2005).

molecular target: T1, PDE 10A (Homo sapiens, UniProt Q9Y233); assay: Inhibition of PDE 10A (in vitro enzyme inhibition test); format: biochemical; settings: recombinant full-length PDE10A expressed in Sf9 insect cells; substrate [5',8-3H] adenosine 3',5'-cyclic phosphate; 60 min at room temperature; scintillation proximity beads
T1 construct: is expressed recombinantly in full length in Sf9 insect cells; made in house; host or cells: Sf9 insect cells (Bac-to-Bac baculovirus system); lysate supernatant used as the enzyme preparation
Description: PDE10A (WO 01/29 199, FIG. 1A) is expressed recombinantly in full length in Sf9 insect cells (Invitrogen, Carlsbad, Calif.) with the aid of the Bac-to-Bac™ Baculovirus expression system of Life Technologies (Gaithersburg, Md.). 48 h after the infection, the cells are harvested and suspended in 20 ml (per 1 l of culture) of lysis buffer (50 mM tris HCl, pH 7.4, 50 mM NaCl, 1 mM MgCl2, 1.5 mM EDTA, 10% glycerol plus 20 μl of Protease Inhibitor Cocktail Set III [CalBiochem, La Jolla, Calif. USA]). The cells are treated at 4° C. for 1 minute with ultrasound and subsequently centrifuged at 10000 rpm for 30 minutes at 4° C. The supernatant (PDE10A preparation) was collected and stored at −20° C.
The test substances are dissolved and serially diluted in 100% DMSO for the determination of their in vitro action on PDE 10A. Typically, dilution series of 200 μM to 1.6 μM are prepared (resulting final concentrations in the test: 4 μM to 0.032 μM). In each case, 2 μl of the diluted substance solutions are introduced into the wells of microtitre plates (Isoplate; Wallac Inc., Atlanta, Ga.). 50 μl of a dilution of the PDE10A preparation described above are subsequently added. The dilution of the PDE10A preparation is chosen such that during the later incubation less than 70% of the substrate is reacted (typical dilution: 1:10000; dilution buffer: 50 mM tris/HCl pH 7.5, 8.3 mM MgCl2, 1.7 mM EDTA, 0.2% BSA). The substrate, [5′,8-^3H] adenosine 3′, 5′-cyclic phosphate (1 μCi/μl; Amersham Pharmacia Biotech., Piscataway, N.J.) is diluted 1:2000 to a concentration of 0.0005 μCi/μl with assay buffer (50 mM tris/HCl pH 7.5, 8.3 mM MgCl2, 1.7 mM EDTA). The enzyme reaction is finally started by addition of 50 μl (0.025 μCi) of the diluted substrate. The test batches are incubated at room temperature for 60 min and the reaction is stopped by addition of 25 μl of a suspension containing 18 mg/ml of Yttrium Scintillation Proximity Beads (Amersham Pharmacia Biotech., Piscataway, N.J.). The microtitre plates are sealed using a film and allowed to stand at room temperature for 60 min. The plates are subsequently measured for 30 s per well in a Microbeta scintillation counter (Wallac Inc., Atlanta, Ga.). IC50 values are determined with the aid of graphic plotting of the substance concentration against the percentage inhibition.

T1 sequence (Q9Y233 1-779 isoform Q9Y233-1): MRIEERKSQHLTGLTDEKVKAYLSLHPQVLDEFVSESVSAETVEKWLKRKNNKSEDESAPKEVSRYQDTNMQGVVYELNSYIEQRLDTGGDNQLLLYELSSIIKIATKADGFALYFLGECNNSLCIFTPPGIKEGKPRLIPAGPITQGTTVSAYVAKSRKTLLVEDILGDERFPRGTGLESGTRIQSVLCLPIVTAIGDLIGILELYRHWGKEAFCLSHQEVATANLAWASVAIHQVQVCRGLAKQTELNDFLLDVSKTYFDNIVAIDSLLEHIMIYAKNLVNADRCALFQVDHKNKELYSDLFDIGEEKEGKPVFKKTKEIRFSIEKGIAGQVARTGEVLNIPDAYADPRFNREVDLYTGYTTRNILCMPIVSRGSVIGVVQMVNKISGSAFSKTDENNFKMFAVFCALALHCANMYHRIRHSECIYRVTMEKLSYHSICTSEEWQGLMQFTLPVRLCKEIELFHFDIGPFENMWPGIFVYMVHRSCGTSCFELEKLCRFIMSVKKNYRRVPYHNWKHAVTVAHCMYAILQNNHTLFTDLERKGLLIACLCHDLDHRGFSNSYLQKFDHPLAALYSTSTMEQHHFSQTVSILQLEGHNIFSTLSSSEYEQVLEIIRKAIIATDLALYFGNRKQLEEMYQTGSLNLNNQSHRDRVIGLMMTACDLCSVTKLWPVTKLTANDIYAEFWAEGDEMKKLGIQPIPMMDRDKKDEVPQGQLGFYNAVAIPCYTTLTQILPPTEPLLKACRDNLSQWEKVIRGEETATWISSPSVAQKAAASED

IC50 [nM]	SMILES
360	COc1cc(CNc2nc(-c3ccc(OC)c(OC)c3)nn3c(C)nc(C)c23)cc(OC)c1 [Example 3, N-(3,5-Dimethoxybenzyl)-2-(3,4-dimethoxyphenyl)-5,7-dimethylimidazo[5,1-f]-[1,2,4]triazin-4-amine]
460	COc1ccc(-c2nc(SCc3cccnc3)c3c(C)nc(C4CCCC4)n3n2)cc1OC [Example 12, 7-Cyclopentyl-2-(3,4-dimethoxyphenyl)-5-methyl-4-[(3-pyridinylmethyl)sulphanyl]-imidazo[5,1-f][1,2,4]triazine]

tested on: not given; assay: not given; settings: not given

melting point [°C]	SMILES
161	COc1ccc(-c2nc(SCc3cccnc3)c3c(C)nc(C)n3n2)cc1OC [Example 4, 2-(3,4-Dimethoxyphenyl)-5,7-dimethyl-4-[(3-pyridinylmethyl)sulphanyl]imidazo-[5,1-f][1,2,4]triazine]
195	COc1ccc(Nc2nc(-c3ccc(OC)c(OC)c3)nn3c(C)nc(C)c23)cc1Cl [Example 13, N-(3-Chloro-4-methoxyphenyl)-2-(3,4-dimethoxyphenyl)-5,7-dimethylimidazo [5,1-f][1,2,4]triazin-4-amine]
173	COc1ccc(-c2nc(Nc3cc(C)c(OC)c(C)c3)c3c(C)nc(C)n3n2)cc1OC [Example 14, 2-(3,4-Dimethoxyphenyl)-N-(4-methoxy-3,5-dimethylphenyl)-5,7-dimethylimidazo-[5,1-f][1,2,4]triazin-4-amine]
180	COc1ccc(-c2nc(Nc3cc(C)c(OC)c(C)c3)c3c(C)nc(C4CCCC4)n3n2)cc1OC [Example 15, 7-Cyclopentyl-2-(3,4-dimethoxyphenyl)-N-(4-methoxy-3,5-dimethylphenyl)-5-methylimidazo[5,1-f][1,2,4]triazin-4-amine]
188	COc1ccc(-c2nc(NCc3cc(OC)c(OC)c(OC)c3)c3c(C)nc(C4CCCC4)n3n2)cc1OC [Example 17, 7-Cyclopentyl-2-(3,4-dimethoxyphenyl)-5-methyl-N-(3,4,5-trimethoxybenzyl)-imidazo[5,1-f][1,2,4]triazin-4-amine]
185	COc1ccc(Nc2nc(-c3ccc(OC)c(OC)c3)nn3c(C4CCCC4)nc(C)c23)cc1 [Example 20, 7-Cyclopentyl-2-(3,4-dimethoxyphenyl)-N-(4-methoxyphenyl)-5-methylimidazo-[5,1-f][1,2,4]triazin-4-amine]
184	COc1ccc(-c2nc(Oc3cc(OC)c(OC)c(OC)c3)c3c(C)nc(C)n3n2)cc1OC [Example 22, 2-(3,4-Dimethoxyphenyl)-5,7-dimethyl-4-(3,4,5-trimethoxyphenoxy)imidazo[5,1-f]-[1,2,4]triazine]
126	COc1cccc(Nc2nc(-c3ccc(OC)c(OC)c3)nn3c(C4CCCC4)nc(C)c23)c1 [Example 23, 7-Cyclopentyl-2-(3,4-dimethoxyphenyl)-N-(3-methoxyphenyl)-5-methylimidazo-[5,1-f][1,2,4]triazin-4-amine]
119	CCc1nc(C2CCCC2)n2nc(-c3ccc(OC)c(S(=O)(=O)N4CCOCC4)c3)nc(Oc3cc(OC)c(OC)c(OC)c3)c12 [Example 25, 7-Cyclopentyl-5-ethyl-2-[4-methoxy-3-(4-morpholinylsulphonyl)phenyl]-4-(3,4,5-trimethoxyphenoxy)imidazo[5,1-f][1,2,4]triazine]
160	CCc1nc(C2CCCC2)n2nc(-c3ccc(OC)cc3)nc(Nc3cc(OC)c(OC)c(OC)c3)c12 [Example 26, N-[7Cyclopentyl-5-ethyl-2-(4-methoxyphenyl)imidazo[5,1-f][1,2,4]triazin-4-yl]-N-(3,4,5-trimethoxyphenyl)amine]
220	COc1cc(OC)cc(-c2nc(Oc3cc(OC)c(OC)c(OC)c3)c3c(C)nc(C)n3n2)c1 [Example 27, 2-(3,5-Dimethoxyphenyl)-5,7-dimethyl-4-(3,4,5-trimethoxyphenoxy)imidazo[5,1-f]-[1,2,4]triazine]
199	COc1cc(Oc2nc(-c3ccc(Br)cc3)nn3c(C)nc(C)c23)cc(OC)c1OC [Example 28, 2-(4-Bromophenyl)-5,7-dimethyl-4-(3,4,5-trimethoxyphenoxy)imidazo[5,1-f]-[1,2,4]triazine]
213	COc1ccc(-c2nc(Oc3cc(OC)c(OC)c(OC)c3)c3c(C)nc(C)n3n2)cc1Cl [Example 29, 2-(3-Chloro-4-methoxyphenyl)-5,7-dimethyl-4-(3,4,5-trimethoxyphenoxy)imidazo-[5,1-f][1,2,4]triazine]
160	COc1ccc(-c2nc(Oc3cc(OC)c(OC)c(OC)c3)c3c(C)nc(CC(C)C)n3n2)cc1Cl [Example 30, 2-(3-Chloro-4-methoxyphenyl)-7-isobutyl-5-methyl-4-(3,4,5-trimethoxyphenoxy)-imidazo[5,1-f][1,2,4]triazine]
166	CCC(CC)c1nc(C)c2c(Oc3cc(OC)c(OC)c(OC)c3)nc(-c3ccc(OC)c(Cl)c3)nn12 [Example 32, 2-(3Chloro-4-methoxyphenyl)-7-(1-ethylpropyl)-5-methyl-4-(3,4,5-trimethoxyphenoxy)imidazo[5,1-f][1,2,4]triazine]
220 to 222	COc1ccc(-c2nc(Nc3ccc(OC)c(OC)c3)c3c(C)nc(C)n3n2)cc1Cl [Example 33, 2-(3-Chloro-4-methoxyphenyl)-N-(3,4-dimethoxyphenyl)-5,7-dimethylimidazo-[5,1-f][1,2,4]triazin-4-amine]
194 to 195	COc1ccc(-c2nc(Nc3cc(OC)c(OC)c(OC)c3)c3c(C)nc(C)n3n2)cc1Cl [Example 34, 2-(3-Chloro-4-methoxyphenyl)-N-(3,4,5-trimethoxyphenyl)-5,7-dimethylimidazo-[5,1-f][1,2,4]triazin-4-amine]
188 to 190	CCOc1ccc(CCNc2nc(-c3ccc(Br)cc3)nn3c(C)nc(C)c23)cc1OC [Example 35, 2-(4-Bromophenyl)-N-[2-(4-ethoxy-3-methoxyphenyl)ethyl]-5,7-dimethylimidazo-[5,1-f][1,2,4]triazin-4-amine]
226 to 228	CCCc1nc(C)c2c(Sc3ccc(NC(C)=O)cc3)nc(-c3ccccc3OCC)nn12 [Example 36, N-(4-{[2-(2-Ethoxyphenyl)-5-methyl-7-propylimidazo[5,1-f][1,2,4]triazin-4-yl]-sulphanyl}phenyl)acetamide]
96	CCCc1nc(C)c2c(Nc3cccc(Br)c3)nc(-c3ccccc3OCC)nn12 [Example 39, N-(3-Bromophenyl)-2-(2-ethoxyphenyl)-5-methyl-7-propylimidazo[5,1-f]-[1,2,4]triazin-4-amine]
112 to 114	CCCc1nc(C)c2c(Nc3cc(OC)c(OC)c(OC)c3)nc(-c3ccccc3OCC)nn12 [Example 44, 2-(2-Ethoxyphenyl)-5-methyl-7-propyl-N-(3,4,5-trimethoxyphenyl)imidazo[5,1-f]-[1,2,4]triazin-4-amine]
98 to 99	CCCc1nc(C)c2c(NCc3ccc(OC)cc3OC)nc(-c3ccccc3OCC)nn12 [Example 46, N-(2,4-Dimethoxybenzyl)-2-(2-ethoxyphenyl)-5-methyl-7-propylimidazo[5,1-f]-[1,2,4]triazin-4-amine]
119 to 122	COc1ccc(CNc2nc(-c3ccc(Br)cc3)nn3c(C)nc(C)c23)cc1OC [Example 51, 2-(4-Bromophenyl)-N-(3,4-dimethoxybenzyl)-5,7-dimethylimidazo[5,1-f]-[1,2,4]triazin-4-amine]
176 to 179	COc1cc(OC)cc(-c2nc(Nc3cc(OC)c(OC)c(OC)c3)c3c(C)nc(C)n3n2)c1 [Example 54, 2-(3,5-Dimethoxyphenyl)-5,7-dimethyl-N-(3,4,5-trimethoxyphenyl)imidazo[5,1-f]-[1,2,4]triazin-4-amine]
153	CCCc1nc(C)c2c(Oc3cc(OC)c(OC)c(OC)c3)nc(-c3ccccc3OCC)nn12 [Example 101, 2-(2-Ethoxyphenyl)-5-methyl-7-propyl-4-(3,4,5-trimethoxyphenoxy)imidazo[5,1-f]-[1,2,4]triazine]
